Laboratory results as given in paper PMC11226541 (Cancer Medicine, 2024).
Where two headings read alike, the source gives them in different places.

Columns and labels:
[1] = system: patients with locally advanced and metastatic solid tumors; test: Dose-limiting toxicities, MTD and RP2D, dose-escalation stage (modified 3 + 3); assay type: in vivo, human; conditions: QD, with pamiparib 60 mg BID
Excerpt: AEs were coded using MedDRA v25.0 or higher.

[2] = Pharmacokinetics of TMZ in plasma (combination with pamiparib); assay type: in vivo; conditions: human, po, read-out: mean plasma concentration of TMZ 1 h after oral administration
Description: (§1) PK of pamiparib and TMZ were assessed in blood samples collected at various timepoints following administration (pamiparib: ≤30 min before dosing, 1 h ± 15 min, 2 h ± 30 min, and 4 h ± 30 min after pamiparib dose on cycle 1 Day 1 and cycle 1 Day 15; TMZ: on cycle 1 Day 1 and Day 7 at ≤30 min before dosing and 1 h ± 15 min after TMZ dose). Parameters for pamiparib included the maximum observed plasma concentration (Cmax), lowest concentration reached before the next administered dose (Ctrough), half‐life (T1/2), and time to reach peak plasma concentration (Tmax). Biomarkers were analyzed in blood samples, processed into serum, plasma, and cell fractions for the analysis of germline mutations and circulating markers. Available archival or fresh tumor tissue samples were analyzed at a central laboratory. Tumor tissue was sent either as a formalin‐fixed, paraffin‐embedded block with tumor tissue (preferred) or as approximately 10 unstained slides.

recurrent glioblastoma = system: recurrent glioblastoma; set-up: method as in PMID 32347934; conditions: combination with TMZ; cited from earlier work
[3] = Pharmacokinetics of pamiparib in plasma (combination with TMZ); assay type: in vivo, human; conditions: for concentration at 2 h: read-out: geometric mean pamiparib concentration at 2 h post dose
Description: as §1

[4] = system: advanced or metastatic solid tumors; conditions: cited from earlier work
[5] = system: BRCA1/2-mutated ovarian cancer; set-up: method as in PMID 34844979; conditions: monotherapy, cited from earlier work
[6] = system: triple-negative breast cancer with germline BRCA1/2 mutations; set-up: method as in PMID 36459284; conditions: monotherapy, TNBC patients with germline BRCA1/2 mutations; cited from earlier work
[7] = set-up: method as in PMID 32652442; conditions: cited from earlier work
advanced malignancies = system: advanced malignancies; set-up: method as in PMID 36136304; conditions: combination with TMZ, related AEs; cited from earlier work

Q: For Cn1nnc2c(C(N)=O)ncn2c1=O [TMZ, Temozolomide], which “RP2D of TMZ” value ([1]; 7-day pulsed) is on record?
A: 60 mg

Q: What about the “maximum tolerated dose of TMZ” value ([1]; 7-day pulsed) of the same compound?
A: 60 mg

Q: And the “maximum tolerated dose of TMZ” value ([1]; continuous)?
A: 20 mg

Q: What about the concentration at 1 h ([2]; cycle 1 Day 1, 20-mg dose) of the same compound?
A: 338 ng/mL

Q: What about the concentration at 1 h ([2]; cycle 1 Day 1, 120-mg dose) of the same compound?
A: 1510 ng/mL

Q: What does the source list for O=C(c1cc(Cc2n[nH]c(=O)c3ccccc23)ccc1F)N1CCN(C(=O)C2CC2)CC1 [olaparib]?
A: Grade 3/4 neutropenia (recurrent glioblastoma): 13%; Grade 3/4 thrombocytopenia (recurrent glioblastoma): 25%

Q: Which “geometric mean AUC0-4 at steady state relative to single-dose pamiparib administration” value ([3]; combination with TMZ) does the source give for C[C@]12CCCN1CC1=NNC(=O)c3cc(F)cc4[nH]c2c1c34 [pamiparib, Pamiparib] here?
A: approximately twice

Q: What about the concentration at 2 h ([3]; human, plasma, oral, cycle 1 Day 1, combination with TMZ) of the same compound?
A: 1580 ng/mL

Q: What about the concentration at 2 h ([3]; human, plasma, oral, cycle 1 Day 15, combination with TMZ) of the same compound?
A: 3480 ng/mL

Q: And the AUC(0-t) ([3]; human, plasma, oral, steady state with combination TMZ therapy (cycle 1 Day 15), pamiparib 60 mg BID, read-out: pamiparib geometric mean AUC0-4)?
A: 11100 ng·h/mL

Q: And the Cmax ([3]; oral, pamiparib 60 mg BID with TMZ, human plasma, n/N 20/20, read-out: Cmax – mean (SD))?
A: 2010 ng/mL

Q: And the Tmax ([3]; oral, pamiparib 60 mg BID with TMZ, human plasma, n/N 20/20, read-out: Tmax – mean (SD))?
A: 4 h

Q: What about the “AUC0-4, SS – geometric mean” value ([3]; pamiparib 60 mg BID with TMZ, steady state, cycle 1, day 15, human plasma, n/N 8/20) of the same compound?
A: 11,119 h*ng/mL

Q: What about the “Ctrough, SS – mean (SD)” value ([3]; pamiparib 60 mg BID with TMZ, steady state, cycle 1, day 15, human plasma, n/N 14/20) of the same compound?
A: 2,934 (2346) ng/mL

Q: What about the RP2D of pamiparib ([4]; administered orally, BID) of the same compound?
A: 60 mg

Q: What about the ORR ([4]; monotherapy, advanced or metastatic solid tumors) of the same compound?
A: 27.3%

Q: What about the ORR ([5]; BRCA1/2-mutated platinum-resistant ovarian cancer) of the same compound?
A: 31.6%

Q: What about the ORR ([5]; BRCA1/2-mutated platinum-sensitive ovarian cancer) of the same compound?
A: 64.6%

Q: What about the ORR [6] of the same compound?
A: 38.2%

Q: And the brain penetration ([7]; mice and rats)?
A: strong brain penetration

Q: And the “drug exposure in the brain” value ([7]; mice)?
A: higher drug exposure in the brain compared with other PARP inhibitors

Q: What does the source list for Cn1ncnc1[C@H]1c2n[nH]c(=O)c3cc(F)cc(c23)N[C@@H]1c1ccc(F)cc1 [talazoparib]?
A: Grade 3/4 neutropenia (advanced malignancies): 28%; Grade 3/4 thrombocytopenia (advanced malignancies): 33%
